The text below walks through data of ChEMBL document CHEMBL1135323, “Dihydroquinolines as novel n-NOS inhibitors” (Bioorg Med Chem Lett, 2002).

Assay [1] deals with T1, Nitric oxide synthase 3 (Homo sapiens, UniProt P29474).
T1 sequence (P29474 whole entry): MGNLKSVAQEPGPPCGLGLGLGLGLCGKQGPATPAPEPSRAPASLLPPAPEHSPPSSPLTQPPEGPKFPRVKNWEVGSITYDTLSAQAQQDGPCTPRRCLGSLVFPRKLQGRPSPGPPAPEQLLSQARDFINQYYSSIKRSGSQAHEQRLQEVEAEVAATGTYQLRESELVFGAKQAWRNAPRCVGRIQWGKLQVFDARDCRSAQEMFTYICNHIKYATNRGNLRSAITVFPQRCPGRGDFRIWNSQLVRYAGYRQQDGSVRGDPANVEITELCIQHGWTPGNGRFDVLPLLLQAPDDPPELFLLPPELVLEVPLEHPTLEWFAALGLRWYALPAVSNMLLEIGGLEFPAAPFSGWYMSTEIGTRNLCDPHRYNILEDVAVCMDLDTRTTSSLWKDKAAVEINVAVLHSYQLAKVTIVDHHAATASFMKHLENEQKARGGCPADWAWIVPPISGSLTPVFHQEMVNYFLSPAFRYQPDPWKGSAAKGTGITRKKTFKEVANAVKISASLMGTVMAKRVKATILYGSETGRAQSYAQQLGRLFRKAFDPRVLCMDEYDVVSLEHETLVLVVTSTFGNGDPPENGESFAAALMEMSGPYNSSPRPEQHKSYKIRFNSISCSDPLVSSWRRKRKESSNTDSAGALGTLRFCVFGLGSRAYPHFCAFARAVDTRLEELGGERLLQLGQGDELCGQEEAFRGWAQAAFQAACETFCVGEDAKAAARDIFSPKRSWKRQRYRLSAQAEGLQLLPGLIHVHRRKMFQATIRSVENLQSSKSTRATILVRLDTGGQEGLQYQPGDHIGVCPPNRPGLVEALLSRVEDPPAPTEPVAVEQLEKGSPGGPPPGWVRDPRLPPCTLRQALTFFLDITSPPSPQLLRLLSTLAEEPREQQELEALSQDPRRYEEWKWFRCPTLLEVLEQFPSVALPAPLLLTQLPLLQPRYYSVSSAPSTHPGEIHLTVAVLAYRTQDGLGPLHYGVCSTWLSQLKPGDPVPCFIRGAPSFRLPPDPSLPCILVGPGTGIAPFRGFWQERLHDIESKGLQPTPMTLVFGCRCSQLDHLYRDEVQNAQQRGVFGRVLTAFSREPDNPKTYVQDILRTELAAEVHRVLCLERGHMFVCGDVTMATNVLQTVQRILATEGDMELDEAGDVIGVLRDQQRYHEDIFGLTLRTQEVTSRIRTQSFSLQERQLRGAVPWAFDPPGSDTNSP
Put plainly: In vitro inhibition of endothelial nitric oxide synthase.

Assay [2] has as its target Nitric oxide synthase, inducible (Homo sapiens, UniProt P35228). In words: In vitro inhibition of inducible nitric oxide synthase.
Assay [3] deals with Nitric oxide synthase 1 (Homo sapiens, UniProt P29475). Put plainly: Concentration required to inhibit neuronal nitric oxide synthase.
Chain of Nitric oxide synthase 1 (P29475 whole entry): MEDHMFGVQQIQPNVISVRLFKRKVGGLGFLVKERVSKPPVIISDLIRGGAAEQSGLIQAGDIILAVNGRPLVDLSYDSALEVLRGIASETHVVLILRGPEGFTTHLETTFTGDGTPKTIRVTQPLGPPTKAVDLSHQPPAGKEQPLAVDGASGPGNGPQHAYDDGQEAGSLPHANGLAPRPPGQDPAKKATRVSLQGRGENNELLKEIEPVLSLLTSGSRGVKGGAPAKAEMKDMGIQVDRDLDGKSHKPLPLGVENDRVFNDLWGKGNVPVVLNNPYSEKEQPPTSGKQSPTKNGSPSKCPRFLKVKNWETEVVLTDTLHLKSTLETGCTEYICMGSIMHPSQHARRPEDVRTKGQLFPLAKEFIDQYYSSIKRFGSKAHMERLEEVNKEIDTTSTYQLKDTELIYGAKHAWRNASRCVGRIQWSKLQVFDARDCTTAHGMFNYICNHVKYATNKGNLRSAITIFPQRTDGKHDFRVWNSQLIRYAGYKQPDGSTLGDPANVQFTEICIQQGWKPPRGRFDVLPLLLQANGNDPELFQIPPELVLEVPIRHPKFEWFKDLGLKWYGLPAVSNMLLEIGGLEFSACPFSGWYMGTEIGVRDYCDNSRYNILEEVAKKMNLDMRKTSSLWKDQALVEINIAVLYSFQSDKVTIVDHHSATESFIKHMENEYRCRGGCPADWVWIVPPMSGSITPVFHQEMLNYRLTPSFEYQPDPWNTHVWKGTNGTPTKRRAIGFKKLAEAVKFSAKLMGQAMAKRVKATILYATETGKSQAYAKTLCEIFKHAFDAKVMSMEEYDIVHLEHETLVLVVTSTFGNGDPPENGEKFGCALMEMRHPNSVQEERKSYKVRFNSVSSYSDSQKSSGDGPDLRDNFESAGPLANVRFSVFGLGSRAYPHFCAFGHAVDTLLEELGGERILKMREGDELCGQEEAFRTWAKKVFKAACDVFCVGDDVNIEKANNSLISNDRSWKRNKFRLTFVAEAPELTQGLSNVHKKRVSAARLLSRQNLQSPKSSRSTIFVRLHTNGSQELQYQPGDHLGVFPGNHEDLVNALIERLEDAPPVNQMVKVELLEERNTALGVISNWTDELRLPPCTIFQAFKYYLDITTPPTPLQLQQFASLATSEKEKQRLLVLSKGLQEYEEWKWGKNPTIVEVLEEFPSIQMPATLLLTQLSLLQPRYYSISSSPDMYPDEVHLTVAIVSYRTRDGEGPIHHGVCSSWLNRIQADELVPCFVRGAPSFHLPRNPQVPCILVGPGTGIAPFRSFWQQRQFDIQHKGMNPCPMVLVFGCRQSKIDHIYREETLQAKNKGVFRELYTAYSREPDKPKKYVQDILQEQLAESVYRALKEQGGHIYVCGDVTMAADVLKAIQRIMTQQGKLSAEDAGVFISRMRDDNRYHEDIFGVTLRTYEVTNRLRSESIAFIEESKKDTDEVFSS

Chain of Nitric oxide synthase, inducible (P35228 whole entry): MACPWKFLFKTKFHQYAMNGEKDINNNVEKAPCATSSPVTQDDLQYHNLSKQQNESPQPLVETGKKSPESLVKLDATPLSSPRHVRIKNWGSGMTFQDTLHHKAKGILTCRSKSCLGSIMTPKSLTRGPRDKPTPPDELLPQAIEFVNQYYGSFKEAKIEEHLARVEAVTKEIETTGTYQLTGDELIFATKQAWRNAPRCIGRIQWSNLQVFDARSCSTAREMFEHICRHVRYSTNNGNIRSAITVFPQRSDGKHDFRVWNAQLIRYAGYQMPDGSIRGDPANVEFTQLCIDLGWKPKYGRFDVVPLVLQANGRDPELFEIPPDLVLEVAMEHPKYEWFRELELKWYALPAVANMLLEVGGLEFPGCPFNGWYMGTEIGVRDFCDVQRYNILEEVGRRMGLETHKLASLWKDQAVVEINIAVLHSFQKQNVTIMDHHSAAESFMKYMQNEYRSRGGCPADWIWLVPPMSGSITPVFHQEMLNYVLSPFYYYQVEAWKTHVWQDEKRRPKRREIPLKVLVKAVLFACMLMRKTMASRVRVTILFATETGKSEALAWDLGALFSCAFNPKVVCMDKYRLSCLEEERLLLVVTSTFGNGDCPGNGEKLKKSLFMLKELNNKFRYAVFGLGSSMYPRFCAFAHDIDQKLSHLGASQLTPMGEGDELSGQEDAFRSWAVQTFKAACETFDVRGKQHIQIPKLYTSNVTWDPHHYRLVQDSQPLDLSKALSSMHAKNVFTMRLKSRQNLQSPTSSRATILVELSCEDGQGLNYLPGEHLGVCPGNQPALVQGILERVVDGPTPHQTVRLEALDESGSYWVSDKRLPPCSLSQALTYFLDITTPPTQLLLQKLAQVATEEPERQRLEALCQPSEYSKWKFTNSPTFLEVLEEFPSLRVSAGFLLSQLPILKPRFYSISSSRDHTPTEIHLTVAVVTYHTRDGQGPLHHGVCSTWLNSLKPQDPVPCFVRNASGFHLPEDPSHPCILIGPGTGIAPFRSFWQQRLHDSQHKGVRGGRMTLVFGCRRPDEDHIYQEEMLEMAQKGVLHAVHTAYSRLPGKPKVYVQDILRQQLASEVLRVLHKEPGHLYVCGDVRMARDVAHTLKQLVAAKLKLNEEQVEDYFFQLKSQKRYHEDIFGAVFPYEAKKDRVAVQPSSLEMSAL

Take `NC1=Nc2ccc(Cl)cc2[C@H]2CCC[C@@H]12`: the IC50 (as a rule, the concentration needed to halve the response being measured) in assay [1] amounted to 6.2 µM; in assay [2] it was 5.7 µM; in assay [3], 0.14 µM.
With `NC1=Nc2ccc(C(F)(F)F)cc2[C@H]2CCC[C@@H]12`, the figures for the IC50 in assay [1], in assay [2] and in assay [3] were 57 µM, 89 µM and 1.6 µM, respectively.
Take `NC1=Nc2c(F)cc(Cl)cc2[C@H]2CCC[C@@H]12`: the concentration for half-maximal inhibition (IC50) in assay [1] was determined as 72 µM; in assay [2], 35 µM; in assay [3] it was 0.73 µM.
In assay [3], `CNC1=Nc2ccccc2[C@H]2CCC[C@@H]12` yielded an IC50 above 100 µM.
For `NC1=Nc2c(F)cccc2[C@H]2CCC[C@@H]12`, the figures for the IC50 in assay [1], in assay [2] and in assay [3] were 5.8 µM, 2.3 µM and 0.17 µM, respectively.
In the case of `c1ccc2c(c1)NC[C@@H]1CCC[C@H]21`, the IC50 in assay [3] was above 200 µM.
Turning to `NC1=Nc2cc(F)ccc2[C@H]2CCC[C@@H]12`, the figures for the IC50 in assay [1], in assay [2] and in assay [3] were 2.3 µM, 1.1 µM and 0.13 µM, respectively.
The compound `NC1=Nc2ccccc2[C@H]2CCCC[C@@H]12` returned an IC50 in assay [3] of 6.8 µM. This counts as single-digit micromolar.
Take `NC1=Nc2ccccc2[C@H]2COC[C@@H]12`: the IC50 in assay [1] worked out at 0.96 µM; in assay [2] it was 4.1 µM; in assay [3], 0.13 µM.
For `Cc1ccc2c(c1)N=C(N)[C@@H]1CCC[C@H]21`, the results for the IC50 in assay [1], in assay [2] and in assay [3] were 6.2 µM, 1.1 µM and 0.19 µM, respectively.
For `NC1=Nc2ccccc2[C@H]2CCC[C@@H]12`, in that order: 3.3 µM, 2.7 µM and 0.16 µM.
`NC1=Nc2cc([N+](=O)[O-])ccc2[C@H]2CCC[C@@H]12`: the figures for the IC50 in assay [1], in assay [2] and in assay [3] were 12 µM, 2.6 µM and 0.31 µM, respectively.
The matching figures for `N#Cc1ccc2c(c1)[C@H]1CCC[C@H]1C(N)=N2`: 54 µM, 32 µM and 0.64 µM.
In the case of `Cc1ccc2c(c1)[C@H]1CCC[C@H]1C(N)=N2`, the values for the half-inhibitory concentration (IC50) in assay [1], in assay [2] and in assay [3] were 21 µM, 12 µM and 0.5 µM, respectively.
Regarding `NC1=Nc2ccc(Br)cc2[C@H]2CCC[C@@H]12`, the half-maximal inhibitory concentration (IC50) in assay [1] stood at 17 µM; in assay [2], 14 µM; in assay [3], 0.31 µM.
`ONC1=Nc2ccccc2[C@H]2CCC[C@@H]12` showed an IC50 in assay [3] above 100 µM.
On to `COc1ccc2c(c1)[C@H]1CCC[C@H]1C(N)=N2`, for which the IC50 in assay [1] is 24 µM; in assay [2], 13 µM; in assay [3], 0.64 µM.
Regarding `COc1ccc2c(c1)N=C(N)[C@@H]1CCC[C@H]21`, the IC50 in assay [1] was 4.1 µM; in assay [2], 1.4 µM; in assay [3] it was 0.24 µM.
For `NC1=Nc2ccc(F)cc2[C@H]2CCC[C@@H]12`, in that order: 2.3 µM, 1.7 µM and 0.11 µM.
Take `NC1=Nc2c(ccc(F)c2F)[C@H]2CCC[C@@H]12`: the results for the IC50 in assay [1], in assay [2] and in assay [3] were 20 µM, 5.1 µM and 0.68 µM, respectively.
On to `NC1=Nc2c(cc(Cl)c(F)c2F)[C@H]2CCC[C@@H]12`, for which the IC50 is above 200 µM in assay [1], 78 µM in assay [2] and 2.1 µM in assay [3].
Consider `NC1=Nc2ccccc2N2CCCC12` (stereo unspecified), for which, in assay [3], inhibition was half-maximal at 3.3 µM (IC50).
The compound `NC1=Nc2ccccc2[C@H]2CCCCC[C@@H]12` yielded an IC50 in assay [3] of 100 µM.
`NC1=Nc2c(Cl)cc(Cl)cc2[C@H]2CCC[C@@H]12`: the IC50 in assay [1] is above 200 µM; in assay [2], 30 µM; in assay [3] it was 4.1 µM.
On to `NC1=Nc2ccc([N+](=O)[O-])cc2[C@H]2CCC[C@@H]12`, for which the IC50 in assay [1] worked out at 34 µM; in assay [2] it was 15 µM; in assay [3] it was 0.25 µM.
As to `COC(=O)[C@@H](N)CCCNC(=N)N[N+](=O)[O-]` [L-NAME], the IC50 in assay [1] is 1.5 µM; in assay [2], 8 µM; in assay [3], 1.6 µM.
